Here are results for 33 molecules from patent publication US12209081B2 (Katholieke Universiteit Leuven, priority 2020, dated 2025).

This test concerns the target mouse TRPM3α2 (mTRPM3) ion channel (Mus musculus (Mouse), UniProt J9SQF3). The test is described as follows: TRPM3 ion channel driven Ca2+ uptake, Fluo-4 AM assay, mTRPM3alpha2 overexpressing flip-in HEK293 cells stimulated with pregnenolone sulfate. In kind it is cell-based. As to the method: Part B Monitoring the TRPM3 Ion Channel Driven Ca^2+ Uptake.
In order to monitor the inhibition of the mouse TRPM3α2 (mTRPM3) ion channel by the compounds of the invention, a cellular system making use of an mTRPM3alpha2 or hTRPM3 overexpressing cell line (flip-in HEK293) was used. The TRPM3 channel was stimulated/opened with Pregnenolone sulfate (PS) (50 μM) which results in Ca^2+ influx.
For mTRPM3, the intracellular Ca^2+ was measured with a Calcium responsive dye. Fluor-4 AM ester (Invitrogen). Cells were cultured until a confluence of 80-90%, washed with Versene (Invitrogen) and detached from the surface by a short incubation with 0.05% Trypsin (Invitrogen). The trypsination process was stopped by the addition of complete cell culture medium (DMEM, glutamax, 10% FCS,NEAA,Pen-Strep). Cells were collected and resuspended in Krebs buffer without Calcium at RT.
Prior the cell seeding (±2000 cells/well into a black, 384 well plate (Greiner)) the diluted compound was added in the assay plate, together with the PS dissolved in Krebs buffer containing Calcium. […] Directly after cell addition the plates were read on an Envision fluorescence reader (Perkin Elmer) by an Excitation of 485 nm and emission at 535 nm.
Channel inhibition was calculated compared to a non-PS stimulated control versus a condition stimulated with PS (50 μM) with vehicle. The ability of the compounds of the invention to inhibit this activity was determined as: Percentage inhibition=[1-((RFU determined for sample with test compound present—RFU determined for sample with positive control inhibitor) divided by (RFU determined in the presence of vehicle—RFU determined for sample with positive control inhibitor))]*100.

Where [1] appears, read: PS (50 μM) stimulated, cpds. 608-666.
The mark [2] stands for this setting: PS (50 μM) stimulated, cpds. 667-751.
[3] abbreviates: PS (50 μM) stimulated, cpds. 500-599.
[4] abbreviates: PS (50 μM) stimulated, cpd 001-199.
The mark [5] stands for this setting: PS (50 μM) stimulated, cpds. 400-499.

SMILES strings stand for the structures.

A word on the IC50: it is the concentration that inhibits the measured activity by half. Low readings indicate greater potency in that assay, high ones weaker potency in that assay.

mouse TRPM3α2 (mTRPM3) ion channel, sequence (J9SQF3 other isoform, or with tags, fused parts or gaps): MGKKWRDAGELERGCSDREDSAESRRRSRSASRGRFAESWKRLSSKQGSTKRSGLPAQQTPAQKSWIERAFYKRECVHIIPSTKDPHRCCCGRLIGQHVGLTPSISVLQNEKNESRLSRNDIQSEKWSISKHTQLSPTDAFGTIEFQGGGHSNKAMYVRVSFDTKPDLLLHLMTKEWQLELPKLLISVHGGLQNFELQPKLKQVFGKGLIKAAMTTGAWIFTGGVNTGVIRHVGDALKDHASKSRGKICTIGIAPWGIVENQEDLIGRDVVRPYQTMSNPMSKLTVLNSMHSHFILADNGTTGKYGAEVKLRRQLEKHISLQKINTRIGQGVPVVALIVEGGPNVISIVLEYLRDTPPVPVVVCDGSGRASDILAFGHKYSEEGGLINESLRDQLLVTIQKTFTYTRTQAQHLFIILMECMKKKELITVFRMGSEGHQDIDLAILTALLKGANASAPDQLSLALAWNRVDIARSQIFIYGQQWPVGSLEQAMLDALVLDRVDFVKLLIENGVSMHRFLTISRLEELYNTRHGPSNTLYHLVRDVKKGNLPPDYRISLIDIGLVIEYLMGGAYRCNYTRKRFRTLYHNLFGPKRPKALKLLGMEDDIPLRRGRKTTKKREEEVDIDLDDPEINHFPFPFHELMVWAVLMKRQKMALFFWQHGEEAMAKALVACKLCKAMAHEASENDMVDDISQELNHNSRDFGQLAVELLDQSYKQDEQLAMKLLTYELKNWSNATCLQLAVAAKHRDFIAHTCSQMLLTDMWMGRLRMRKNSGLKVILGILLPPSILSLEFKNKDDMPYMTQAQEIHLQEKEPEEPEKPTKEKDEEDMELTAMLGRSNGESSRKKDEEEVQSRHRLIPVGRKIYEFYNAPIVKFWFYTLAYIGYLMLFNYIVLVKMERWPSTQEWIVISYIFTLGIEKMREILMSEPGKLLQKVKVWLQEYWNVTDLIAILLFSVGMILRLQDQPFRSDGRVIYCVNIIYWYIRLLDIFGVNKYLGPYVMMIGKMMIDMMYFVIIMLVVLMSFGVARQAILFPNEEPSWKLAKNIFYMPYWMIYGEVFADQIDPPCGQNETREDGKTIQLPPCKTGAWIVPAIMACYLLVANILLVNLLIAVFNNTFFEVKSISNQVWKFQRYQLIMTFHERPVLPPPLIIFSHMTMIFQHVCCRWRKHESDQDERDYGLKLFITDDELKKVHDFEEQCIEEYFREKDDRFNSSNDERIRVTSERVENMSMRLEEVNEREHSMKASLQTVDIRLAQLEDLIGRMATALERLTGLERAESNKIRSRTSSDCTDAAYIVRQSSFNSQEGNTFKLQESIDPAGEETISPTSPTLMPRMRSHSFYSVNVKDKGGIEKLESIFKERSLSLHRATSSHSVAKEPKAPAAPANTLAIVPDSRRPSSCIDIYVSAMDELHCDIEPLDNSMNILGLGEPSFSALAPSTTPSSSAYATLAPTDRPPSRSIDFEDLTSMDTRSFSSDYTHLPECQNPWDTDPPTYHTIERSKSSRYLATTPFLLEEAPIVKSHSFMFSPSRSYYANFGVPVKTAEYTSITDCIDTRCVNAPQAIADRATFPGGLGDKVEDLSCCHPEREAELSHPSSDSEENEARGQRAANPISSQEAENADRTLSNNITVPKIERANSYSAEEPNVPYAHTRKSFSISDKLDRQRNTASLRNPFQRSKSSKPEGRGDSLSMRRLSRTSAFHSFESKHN

`COc1ncccc1COc1ccc2oc(C)c(C(=O)NC3COCC3(F)F)c2c1` (stereo not drawn) [compound 665, N-(4,4-difluorotetrahydrofuran-3-yl)-5-((2-methoxypyridin-3-yl)methoxy)-2-methylbenzofuran-3-carboxamide] showed a half-maximal inhibitory concentration (IC50) under setting [1] below 1 µM.
As to `Cc1ncc(COc2ccc3oc(C)c(C(=O)NC(C)(CO)C(N)=O)c3c2)o1` (single isomer, unassigned) [cpd 722-En 2], under setting [2], the IC50 is below 1 µM.
In turn, `Cc1coc(COc2ccc3oc(C)c(C(=O)NC4CCNCC4(F)F)c3c2)n1` (single isomer, unassigned) [cpd 551-En 2] showed a concentration for half-maximal inhibition (IC50) under setting [3] of 1 to 20 µM.
In the case of `Cc1ncsc1COc1ccc2oc(C)c(C(=O)NC(C)c3ncco3)c2c1` (single isomer, unassigned) [cpd 315-En 1], the half-inhibitory concentration (IC50) (PS 50 μM, cpds 300-399) was below 1 µM.
`Cc1ncsc1COc1ccc2oc(C)c(C(=O)NC3(C(=O)N(C)C)COC3)c2c1` [compound 509, N-(3-(dimethylcarbamoyl)oxetan-3-yl)-2-methyl-5-((4-methylthiazol-5-yl)methoxy)benzofuran-3-carboxamide] had an IC50 under setting [3] below 1 µM.
Turning to `Cc1ncsc1COc1ccc2oc(C(N)=O)c(C(=O)NC3(CO)CCOCC3)c2c1` [compound 658, N3-(4-(hydroxymethyl)tetrahydro-2H-pyran-4-yl)-5-((4-methylthiazol-5-yl)methoxy)benzofuran-2,3-dicarboxamide], the IC50 under setting [1] is above 20 µM.
Regarding `Cc1oc2ccc(OCc3cncc(C(F)(F)F)c3)cc2c1C(=O)NC1CCNCC1(F)F` (stereo not drawn) [compound 075, N-(3,3-difluoropiperidin-4-yl)-2-methyl-5-((5-(trifluoromethyl)pyridin-3-yl)methoxy)benzofuran-3-carboxamide], the IC50 under setting [4] is above 20 µM.
Still for that read-out and setting: to `Cc1oc2ccc(OCc3ccccn3)cc2c1C(=O)NC1CCNC1=O` (stereo not drawn) [compound 026, 2-methyl-N-(2-oxopyrrolidin-3-yl)-5-(pyridin-2-ylmethoxy)benzofuran-3-carboxamide] belongs below 1 µM.
Regarding `Cc1ncc(COc2ccc3oc(C)c(C(=O)NC4(C(N)=O)CCC4)c3c2)s1` [compound 471, N-(1-carbamoylcyclobutyl)-2-methyl-5-((2-methylthiazol-5-yl)methoxy)benzofuran-3-carboxamide], under setting [5], the IC50 is below 1 µM.
`Cc1oc2ccc(OCc3cccnc3C(F)(F)F)cc2c1C(=O)NC1COCC1O` (single isomer, unassigned) [147-Dia 1-En 2, N-(4-hydroxytetrahydrofuran-3-yl)-2-methyl-5-((2-(trifluoromethyl)pyridin-3-yl)methoxy) -benzofuran-3-carboxamide] yielded an IC50 under setting [4] below 1 µM.
In the case of `Cc1ncc(COc2ccc3oc(C)c(C(=O)NC4COCC4(F)F)c3c2)s1` (single isomer, unassigned) [cpd 643-En 1], the IC50 under setting [1] was below 1 µM.
Take `Cc1ncc(COc2ccc3oc(C)c(C(=O)NC(C)(CO)CO)c3c2)s1` [compound 425, N-(1,3-dihydroxy-2-methylpropan-2-yl)-2-methyl-5-((2-methylthiazol-5-yl)methoxy)benzofuran-3-carboxamide]: under setting [5], the IC50 is below 1 µM.
`Cc1ncsc1COc1cc2c(C(=O)NC3(CO)CC3)c(C)oc2cc1F` [compound 361, 6-fluoro-N-(1-(hydroxymethyl)cyclopropyl)-2-methyl-5-((4-methylthiazol-5-yl)methoxy)benzofuran-3-carboxamide] had a half-maximal inhibitory concentration (IC50) (PS 50 μM, cpds 300-399) below 1 µM.
With `Cc1ncsc1COc1ccc2oc(C)c(C(=O)N[C@H](CO)CS(C)(=O)=O)c2c1` [compound 275], the 50% inhibitory concentration (IC50) (PS 50 μM, cpds 200-299) is below 1 µM.
Molecule `Cc1ncsc1COc1ccc2oc(C)c(C(=O)NC3(CO)COC3)c2c1F` [compound 328, 4-fluoro-N-(3-(hydroxymethyl)oxetan-3-yl)-2-methyl-5-((4-methylthiazol-5-yl)methoxy)benzofuran-3-carboxamide] had a concentration for half-maximal inhibition (IC50) (PS 50 μM, cpds 300-399) below 1 µM.
Regarding `Cc1oc2ccc(OCc3c[nH]nc3C(F)(F)F)cc2c1C(=O)NC1(CO)CCOCC1` [compound 615, N-(4-(hydroxymethyl)tetrahydro-2H-pyran-4-yl)-2-methyl-5-((3-(trifluoromethyl)-1H-pyrazol-4-yl)methoxy)benzofuran-3-carboxamide], the IC50 under setting [1] is below 1 µM.
For `Cc1oc2ccc(OCc3cccnc3C(F)(F)F)cc2c1C(=O)NC1CCNC1=O` (stereo not drawn) [compound 064, 2-methyl-N-(2-oxopyrrolidin-3-yl)-5-((2-(trifluoromethyl)pyridin-3-yl)methoxy)benzofuran-3-carboxamide], the IC50 under setting [4] is below 1 µM.
In the case of `Cc1oc2ccc(OCc3nccs3)cc2c1C(=O)NC1(C(N)=O)COC1` [compound 582, N-(3-carbamoyloxetan-3-yl)-2-methyl-5-(thiazol-2-ylmethoxy)benzofuran-3-carboxamide], the IC50 under setting [3] was below 1 µM.
Under setting [2], `COc1ncccc1COc1ccc2oc(C)c(C(=O)N[C@@H](CO)C(N)=O)c2c1` [compound 715, (S)-N-(1-amino-3-hydroxy-1-oxopropan-2-yl)-5-((2-methoxypyridin-3-yl)methoxy)-2-methylbenzofuran-3-carboxamide] came in with a concentration for half-maximal inhibition (IC50) below 1 µM.
Take `Cc1oc2ccc(OCc3cccnc3O)cc2c1C(=O)NC1(C(N)=O)CCC1` [compound 473, N-(1-carbamoylcyclobutyl)-5-((2-hydroxypyridin-3-yl)methoxy)-2-methylbenzofuran-3-carboxamide]: under setting [5], the 50% inhibitory concentration (IC50) was below 1 µM.
The same measure, in the same setting: to `COc1ncccc1COc1ccc2oc(C)c(C(=O)N[C@H](C)CO)c2c1` [compound 497, (R)-N-(1-hydroxypropan-2-yl)-5-((2-methoxypyridin-3-yl)methoxy)-2-methylbenzofuran-3-carboxamide] belongs below 1 µM.
Under setting [4], `Cc1ncsc1COc1ccc2oc(C)c(C(=O)NC3(CNCC(F)(F)F)CCC3)c2c1` [compound 145, 2-methyl-5-((4-methylthiazol-5-yl)methoxy)-N-(1-(((2,2,2-trifluoroethyl)amino)methyl)cyclobutyl) -benzofuran-3-carboxamide] returned a concentration for half-maximal inhibition (IC50) below 1 µM.
`Cc1ncsc1COc1ccc2oc(C)c(C(=O)NC3(C(N)=O)CCOCC3)c2c1` [compound 650, N-(4-carbamoyltetrahydro-2H-pyran-4-yl)-2-methyl-5-((4-methylthiazol-5-yl)methoxy)benzofuran-3-carboxamide] showed an IC50 under setting [1] below 1 µM.
Regarding `COc1ncccc1COc1ccc2oc(C)c(C(=O)NC3(CO)CCOC3)c2c1` (single isomer, unassigned) [cpd 536-En 1], the IC50 under setting [3] was below 1 µM.
With `Cc1oc2cc(C#N)c(OCc3cccnc3C(F)(F)F)cc2c1C(=O)NC1CCNCC1(F)F` (single isomer, unassigned) [195-En 1, 6-cyano-N-(3,3-difluoropiperidin-4-yl)-2-methyl-5-((2-(trifluoromethyl)pyridin-3-yl)methoxy) -benzofuran-3-carboxamide], the IC50 under setting [4] is above 20 µM.
With `Cc1oc2ccc(OCc3nccs3)cc2c1C(=O)NC1CCNCC1(F)F` (single isomer, unassigned) [cpd 560-En 1], the half-inhibitory concentration (IC50) under setting [3] is below 1 µM.
Under setting [3], `Cc1ncsc1COc1cc(F)c2oc(C)c(C(=O)NC3CCNCC3(F)F)c2c1` (single isomer, unassigned) [cpd 573-En 1] came in with a concentration for half-maximal inhibition (IC50) below 1 µM.
`Cc1ncc(COc2ccc3oc(C4CC4)c(C(=O)N[C@@H](CO)C(N)=O)c3c2)o1` [compound 751, (S)-N-(1-amino-3-hydroxy-1-oxopropan-2-yl)-2-cyclopropyl-5-((2-methyloxazol-5-yl)methoxy) benzofuran-3-carboxamide] gave an IC50 under setting [2] below 1 µM.
Regarding `Cc1ncsc1COc1ccc2oc(C)c(C(=O)NC3(C(N)=O)CC3)c2c1` [compound 477, N-(1-carbamoylcyclopropyl)-2-methyl-5-((4-methylthiazol-5-yl)methoxy)benzofuran-3-carboxamide], the IC50 under setting [5] is below 1 µM.
Consider `Cc1oc2ccc(OCc3ccc[nH]c3=O)cc2c1C(=O)NC1(CO)CCOCC1` [compound 614, N-(4-(hydroxymethyl)tetrahydro-2H-pyran-4-yl)-2-methyl-5-((2-oxo-1,2-dihydropyridin-3-yl)methoxy)benzofuran-3-carboxamide], for which the 50% inhibitory concentration (IC50) under setting [1] is below 1 µM.
Molecule `COc1ncccc1COc1ccc2oc(C)c(C(=O)NC3CCNCC3(F)F)c2c1` (single isomer, unassigned) [cpd 565-En 1] gave an IC50 under setting [3] below 1 µM.
Still for that read-out and setting: the figure for `Cc1ncsc1COc1ccc2oc(C)c(C(=O)NC(=O)C3(N(C)C)COC3)c2c1` [compound 508, N-(3-(dimethylamino)oxetane-3-carbonyl)-2-methyl-5-((4-methylthiazol-5-yl)methoxy)benzofuran-3-carboxamide] is below 1 µM.
Under setting [4], `Cc1oc2ccc(OCc3cccnc3C(F)(F)F)cc2c1C(=O)Nc1cn[nH]c1` [compound 158, 2-methyl-N-(1H-pyrazol-4-yl)-5-((2-(trifluoromethyl)pyridin-3-yl)methoxy)benzofuran-3-carboxamide] showed an IC50 below 1 µM.
